Measured values: article PMC10179272, “SARS-CoV-2 Binding and Neutralization Properties of Peptides Derived from N-Terminus of Human ACE2” (International Journal of Molecular Sciences, 2023)
Where a SMILES comes first, the peptide text is derived from it. Bridges are numbered along the chain shown (N, C = ends). [ ]: non-standard residue; d: D form. S5 = C=CCCC[C@](C)(N)C(=O)O

Assays:
[1] = tested on: live SARS-CoV-2 virus (variant B.1.1)
[2] = tested on: full-length SARS-CoV-2 S protein (Wuhan variant); assay: Competition of P1st with FAM-labeled peptides for S protein binding (fluorescent immunoassay); conditions: P1st at 25 μM; P1-FAM 3.25 to 25 μM; fluorescence intensity; result in words
[3] = tested on: BA.1-like (Omicron) PVP
[4] = tested on: PVP with Wuhan variant S-protein
[5] = tested on: full-length S protein of SARS-CoV-2 (Wuhan variant); type: binding; conditions: S protein 1 μg/mL coated; peptide incubated 2 h at RT; fluorescence 483 nm excitation/530 nm emission; result in words
[6] = tested on: full-length S protein of SARS-CoV-2 (Wuhan variant); assay: Immunosorbent assay of P2 binding to immobilized S protein, detected with anti-P1 antibodies; conditions: P2 incubated 2 h at 37 °C; anti-P1 antibody 1 μg/mL, anti-rabbit IgG-HRP, TMB, A450-620; result in words

Molecule: CC[C@H](C)[C@H](NC(=O)[C@@H](NC(=O)[C@H](CO)NC(C)=O)[C@@H](C)O)C(=O)N[C@@H](CCC(=O)O)C(=O)N[C@@H](CCC(=O)O)C(=O)N[C@@H](CCC(N)=O)C(=O)N[C@@H](C)C(=O)N[C@@H](CCCCN)C(=O)N[C@H](C(=O)N[C@@]1(C)CCCC=CCCC[C@@](C)(C(=O)N[C@@H](CC(N)=O)C(=O)N[C@@H](Cc2c[nH]cn2)C(=O)N[C@@H](CCC(=O)O)C(=O)N[C@@H](C)C(=O)N[C@@H](CCC(=O)O)C(=O)N[C@@H](CC(=O)O)C(=O)N[C@@H](CC(C)C)C(=O)N[C@@H](Cc2ccccc2)C(=O)N[C@@H](Cc2ccc(O)cc2)C(=O)N[C@@H](CCC(N)=O)C(=O)N[C@@]2(C)CCCC=CCCC[C@@](C)(C(=O)N[C@@H](Cc3c[nH]c4ccccc34)C(=O)N[C@@H](CC(N)=O)C(=O)N[C@@H](Cc3ccc(O)cc3)C(N)=O)NC(=O)[C@H](C)NC(=O)[C@H](CC(C)C)NC(=O)[C@H](CO)NC2=O)NC(=O)[C@H](CCCCN)NC(=O)[C@H](CC(=O)O)NC(=O)[C@H](CC(C)C)NC1=O)[C@@H](C)O [P1st] (Ac-STIEEQAKT[S5]LDK[S5]NHEAEDLFYQ[S5]SLA[S5]WNY-NH2; staple 10-14, 25-29)
- IC50 ([1]; live virus (variant B.1.1, 4 h)): 7.04 µM
- Competition with other peptides (P1-FAM, SAP) for binding to S protein [2]: able to efficiently compete
- IC50 ([3]; 48 h): 18.3 µM
- IC50 ([4]; 48 h): 25.4 µM

Molecule: EDLFYQ [SAP6, short ACE2 peptide, 6 aa, described previously [23]]
- Binding of FAM-labeled peptide to immobilized full-length S protein [5]: reasonable binding

Molecule: EDLFYQSSL [SAP2, short ACE2 peptide, 9 aa, described previously [23]]
- Binding of FAM-labeled peptide to immobilized full-length S protein [5]: reasonable binding

Molecule: GKGDFRIL [SAP4, reference compound]
- Inhibitory activity on live SARS-CoV-2 infection of Vero cells at high concentration ([1]; 300 μM peptide, […], judged non-specific, result in words): Inhibitory activity
- Binding of FAM-labeled peptide to immobilized full-length S protein [5]: failed to bind
- Inhibitory activity on PVP (Wuhan S protein) entry at high concentration ([4]; 200 μM peptide, HEK/ACE2 cells, judged non-specific, result in words): Marked inhibitory activity

Molecule: MSTIEEQAKTFLDKFNHEAEDLFYQSSLASWNYNTNITEENVQNMNNAGDKWSAFLKEQSTLAQMYPLQEIQNLTVKLQLQALQ [P2]
- Inhibition of PVP (BA.1-like S protein) entry into ACE2-overexpressing cells ([3]; […], flow cytometry, result in words): failed to inhibit PVP entry
- P2 binding to immobilized full-length S protein [6]: demonstrated their binding ability
- Inhibition of PVP (Wuhan S protein) entry into ACE2-overexpressing cells ([4]; peptide 0 to 56 μM (Figure 3), […], flow cytometry, result in words): could not inhibit entry

Molecule: STIEEQAKTFLDAFNHAAAALFAQSSLASWNY [P1m, control P1 with alanine substitutions of key amino acids]
- Binding of FAM-labeled peptide to immobilized full-length S protein [5]: failed to bind

Molecule: TFLDKFNHEAEDLFYQ [SAP1, short ACE2 peptide, 16 aa, described previously [23]]
- Binding of FAM-labeled peptide to immobilized full-length S protein [5]: reasonable binding
